Source: PubChem BioAssay (NCI)
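Tested at 5 concentrations; 48 h exposure; 96-well plates; endpoints linearly interpolated, else capped at highest concentration. TGI: concentration producing complete growth inhibition.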

Experiments:
Assay in all cases: DTP human tumour cell line panel, 48 h
786-0 renal = tested on: 786-0 renal
A498 renal = tested on: A498 renal
A549 NSCLC = tested on: A549 NSCLC
ACHN renal = tested on: ACHN renal
BT-549 breast = tested on: BT-549 breast
CAKI-1 renal = tested on: CAKI-1 renal
CCRF-CEM leukemia = tested on: CCRF-CEM leukemia
COLO 205 colon = tested on: COLO 205 colon
DU-145 prostate = tested on: DU-145 prostate
EKVX NSCLC = tested on: EKVX NSCLC
HCC-2998 colon = tested on: HCC-2998 colon
HCT-116 colon = tested on: HCT-116 colon
HCT-15 colon = tested on: HCT-15 colon
HL-60(TB) leukemia = tested on: HL-60(TB) leukemia
HOP-62 NSCLC = tested on: HOP-62 NSCLC
HOP-92 NSCLC = tested on: HOP-92 NSCLC
HS 578T breast = tested on: HS 578T breast
HT29 colon = tested on: HT29 colon
IGROV1 ovarian = tested on: IGROV1 ovarian
K-562 leukemia = tested on: K-562 leukemia
KM12 colon = tested on: KM12 colon
LOX IMVI melanoma = tested on: LOX IMVI melanoma
M14 melanoma = tested on: M14 melanoma
MALME-3M melanoma = tested on: MALME-3M melanoma
MCF7 breast = tested on: MCF7 breast
MDA-MB-231 breast = tested on: MDA-MB-231 breast
MDA-MB-435 = tested on: MDA-MB-435
MDA-N = tested on: MDA-N
MOLT-4 leukemia = tested on: MOLT-4 leukemia
NCI-H226 lung = tested on: NCI-H226 lung
NCI-H23 lung = tested on: NCI-H23 lung
NCI-H460 lung = tested on: NCI-H460 lung
NCI-H522 lung = tested on: NCI-H522 lung
NCI/ADR-RES ovarian = tested on: NCI/ADR-RES ovarian
OVCAR-3 ovarian = tested on: OVCAR-3 ovarian
OVCAR-4 ovarian = tested on: OVCAR-4 ovarian
OVCAR-5 ovarian = tested on: OVCAR-5 ovarian
OVCAR-8 ovarian = tested on: OVCAR-8 ovarian
PC-3 prostate = tested on: PC-3 prostate
RPMI-8226 leukemia = tested on: RPMI-8226 leukemia
RXF 393 renal = tested on: RXF 393 renal
SF-268 CNS = tested on: SF-268 CNS
SF-295 CNS = tested on: SF-295 CNS
SF-539 CNS = tested on: SF-539 CNS
SK-MEL-2 melanoma = tested on: SK-MEL-2 melanoma
SK-MEL-28 melanoma = tested on: SK-MEL-28 melanoma
SK-MEL-5 melanoma = tested on: SK-MEL-5 melanoma
SK-OV-3 ovarian = tested on: SK-OV-3 ovarian
SN12C renal = tested on: SN12C renal
SNB-19 CNS = tested on: SNB-19 CNS
SNB-75 CNS = tested on: SNB-75 CNS
SW-620 colon = tested on: SW-620 colon
T-47D breast = tested on: T-47D breast
TK-10 renal = tested on: TK-10 renal
U251 CNS = tested on: U251 CNS
UACC-257 melanoma = tested on: UACC-257 melanoma
UACC-62 melanoma = tested on: UACC-62 melanoma
UO-31 renal = tested on: UO-31 renal

CCCCCCCCCCCCCCCC(=O)OC1C(O)C(O)C(O)C(O)C12CO2 (stereo not given)
TGI (786-0 renal): 41.9 µM | TGI (A498 renal): > 100 µM | TGI (A549 NSCLC): > 100 µM | TGI (ACHN renal): > 100 µM | TGI (BT-549 breast): > 100 µM | TGI (CAKI-1 renal): 29.8 µM | TGI (CCRF-CEM leukemia): 41.1 µM | TGI (COLO 205 colon): > 100 µM | TGI (DU-145 prostate): > 100 µM | TGI (EKVX NSCLC): 61.4 µM | TGI (HCC-2998 colon): > 100 µM | TGI (HCT-116 colon): > 100 µM | TGI (HCT-15 colon): 63.5 µM | TGI (HL-60(TB) leukemia): 45.7 µM | TGI (HOP-62 NSCLC): > 100 µM | TGI (HOP-92 NSCLC): 56.1 µM | TGI (HS 578T breast): > 100 µM | TGI (HT29 colon): > 100 µM | TGI (IGROV1 ovarian): > 100 µM | TGI (K-562 leukemia): 67.8 µM | TGI (KM12 colon): > 100 µM | TGI (LOX IMVI melanoma): 53.2 µM | TGI (M14 melanoma): > 100 µM | TGI (MALME-3M melanoma): > 100 µM | TGI (MCF7 breast): > 100 µM | TGI (MDA-MB-231 breast): > 100 µM | TGI (MDA-MB-435): > 100 µM | TGI (MDA-N): > 100 µM | TGI (MOLT-4 leukemia): 42.7 µM | TGI (NCI-H226 lung): > 100 µM | TGI (NCI-H23 lung): > 100 µM | TGI (NCI-H460 lung): > 100 µM | TGI (NCI-H522 lung): > 100 µM | TGI (NCI/ADR-RES ovarian): > 100 µM | TGI (OVCAR-3 ovarian): 73 µM | TGI (OVCAR-4 ovarian): > 100 µM | TGI (OVCAR-5 ovarian): > 100 µM | TGI (OVCAR-8 ovarian): 57.5 µM | TGI (PC-3 prostate): 89.7 µM | TGI (RPMI-8226 leukemia): > 100 µM | TGI (RXF 393 renal): > 100 µM | TGI (SF-268 CNS): > 100 µM | TGI (SF-295 CNS): > 100 µM | TGI (SF-539 CNS): 63.9 µM | TGI (SK-MEL-2 melanoma): > 100 µM | TGI (SK-MEL-28 melanoma): > 100 µM | TGI (SK-MEL-5 melanoma): > 100 µM | TGI (SK-OV-3 ovarian): > 100 µM | TGI (SN12C renal): 34.5 µM | TGI (SNB-19 CNS): > 100 µM | TGI (SNB-75 CNS): 93.2 µM | TGI (SW-620 colon): 40 µM | TGI (T-47D breast): > 100 µM | TGI (TK-10 renal): > 100 µM | TGI (U251 CNS): 39.2 µM | TGI (UACC-257 melanoma): > 100 µM | TGI (UACC-62 melanoma): > 100 µM | TGI (UO-31 renal): > 100 µM

C=C1CC[C@@H]2[C@](C)(COC(=O)CCC(=O)O)CCC[C@@]2(C)[C@@H]1CCC1=CC(=O)OC1
TGI (786-0 renal): > 100 µM | TGI (A498 renal): > 100 µM | TGI (A549 NSCLC): > 100 µM | TGI (ACHN renal): > 100 µM | TGI (BT-549 breast): > 100 µM | TGI (CAKI-1 renal): > 100 µM | TGI (CCRF-CEM leukemia): > 100 µM | TGI (COLO 205 colon): > 100 µM | TGI (DU-145 prostate): 38.7 µM | TGI (EKVX NSCLC): > 100 µM | TGI (HCC-2998 colon): > 100 µM | TGI (HCT-116 colon): > 100 µM | TGI (HCT-15 colon): > 100 µM | TGI (HL-60(TB) leukemia): > 100 µM | TGI (HOP-62 NSCLC): > 100 µM | TGI (HOP-92 NSCLC): > 100 µM | TGI (HS 578T breast): > 100 µM | TGI (HT29 colon): > 100 µM | TGI (IGROV1 ovarian): > 100 µM | TGI (K-562 leukemia): > 100 µM | TGI (KM12 colon): > 100 µM | TGI (LOX IMVI melanoma): > 100 µM | TGI (M14 melanoma): > 100 µM | TGI (MALME-3M melanoma): > 100 µM | TGI (MCF7 breast): > 100 µM | TGI (MDA-MB-231 breast): > 100 µM | TGI (MDA-MB-435): > 100 µM | TGI (MDA-N): > 100 µM | TGI (MOLT-4 leukemia): > 100 µM | TGI (NCI-H226 lung): > 100 µM | TGI (NCI-H23 lung): > 100 µM | TGI (NCI-H522 lung): > 100 µM | TGI (NCI/ADR-RES ovarian): > 100 µM | TGI (OVCAR-3 ovarian): > 100 µM | TGI (OVCAR-4 ovarian): > 100 µM | TGI (OVCAR-5 ovarian): > 100 µM | TGI (OVCAR-8 ovarian): > 100 µM | TGI (PC-3 prostate): > 100 µM | TGI (RPMI-8226 leukemia): > 100 µM | TGI (RXF 393 renal): > 100 µM | TGI (SF-268 CNS): > 100 µM | TGI (SF-295 CNS): > 100 µM | TGI (SF-539 CNS): > 100 µM | TGI (SK-MEL-2 melanoma): > 100 µM | TGI (SK-MEL-28 melanoma): > 100 µM | TGI (SK-MEL-5 melanoma): > 100 µM | TGI (SK-OV-3 ovarian): > 100 µM | TGI (SN12C renal): > 100 µM | TGI (SNB-19 CNS): > 100 µM | TGI (SNB-75 CNS): > 100 µM | TGI (SW-620 colon): > 100 µM | TGI (T-47D breast): > 100 µM | TGI (TK-10 renal): > 100 µM | TGI (U251 CNS): > 100 µM | TGI (UACC-257 melanoma): > 100 µM | TGI (UACC-62 melanoma): > 100 µM | TGI (UO-31 renal): > 100 µM
